Columns and labels:
Assay type in all cases: in vivo
[1] = system: barley; experiment: Barley radical elongation assay; conditions: 10 μM 1019 alone, 3.0 days post treatment (FIG. 11B)
Protocol: Seeds were surface sterilized by incubation in 10% bleach for 20 min with shaking, then rinsed four times with sterile water. Four ml of test solutions were pipetted into petri dishes (100×15 mm) that contain a single filter paper. Fifteen seeds were added to each dish. For rice, barely, and wheat, the experiment involved five treatments (5 μM ABA; 5 μM ABA+10 μM 1019; 10 μM 1019; water control; water+EtOH+NaOH control), with three replications per treatment. For sorghum, treatments were 10 μM ABA; 10 μM ABA+20 μM 1019; 20 μM 1019; water control; water+EtOH+NaOH control. Dishes were sealed with Parafilm, and incubated in the dark at room temperature. Radical length was measured daily post emergence using ImageJ software; shown are 3 days post treatment for barley, wheat and sorghum and 4.5 days post treatment for rice.

[2] = system: Canola seed (Nutrien PV200); experiment: Canola seed germination assay
Protocol: For each treatment 6 replicates of 40 seeds were plated into petri dishes lined with two filter papers and 10 mL of test solution. The covered dishes were stored at room temperature in the dark. Germinated seeds were counted every 2 days for 8 days. The following dosages were used when studying the effect of exemplary compounds on canola germination: control 1% DMSO. 10 μM ABA, 100 μM 1019, and 100 μM 1019 plus 10 μM ABA.

[3] = system: RIL from L. culinaris var Redberry x L. culinaris ssp. orientalis IG72595; experiment: Lentil RIL germination, emergence and time to flowering (F5-F7, F7 experiment)
Description: • DSTG=Days from seeding to germination • DSTE=Days from seeding to Emergence • DSTF=Days from seeding to flowering • DSTH=Days from seeding to harvesting of first seed (F7 was not included because the purpose of this generation was to harvest as many seeds as possible) • GA3=gibberellic acid • DMSO=solvent required for dissolving 1019-ABA F7 Experiment
Objective: Testing the effect of soaking seeds of the F7 generation in four solutions listed below.
Treatments: water, DMSO, 1019-ABA, and 1019-ABA for 1 day followed by 100 μM GA3
Plant material: Seeds derived from a cross between L. culinaris var Redberry and L. culinaris ssp. orientalis IG72595
Experimental set up: 207 RIL-lines in total; 4 seeds (repetitions) per line; 4 treatments
Data collection: Days from seeding to germination (DSTG), days from seeding to emergence (DSTE), and Days from seeding to first flower were counted. Days from seeding to first harvest was not determined because we needed as many seeds as possible in this generation.
Days to germination (DSTG), emergence (DSTE), time to flowering (DSTF) and first harvest (DSTH) were determined during the development of a recombinant inbred line (RIL) developed from a cross between L. culinaris var Redberry and L. culinaris ssp. orientalis IG72595. The aim of the project was to find and incorporate Aphanomyces root rot resistance into the cultivated lentil, and the L. orientalis accession was identified with improved resistance. During the development of this RIL line speed breeding techniques were applied i.e. warmer temperatures, longer day length, higher light intensity, restricted pot volume etc. In generation F5, the exemplary compound became available and was tested on germination and emergence. […] The F7 generation was set up as a proper experiment with four treatments i.e. 1019, water, DMSO (solvent needed for dissolving exemplary compound 1019), and exemplary compound 1019 for one day followed by 100 μM GA3 (FIG. 12).

[4] = system: Lentil (CDC Maxim); experiment: Lentil (CDC Maxim) seed germination assay
Protocol: 40 seeds were counted for each 100×15 mm petri dishes. Each petri dish contained two filter papers and 10 mL of test solutions. Then, they were wrapped with aluminium foil to cut off light. Wrapped plates were kept on lab bench at room temperature. Germinated seeds were counted everyday until one treatment reaches 100% germination (two days). Only light exposure was during plate counting. […]
All seeds from this experiment have been rinsed first with tap water and then with dH2O, frozen in liquid nitrogen and stored at −80° C. freezer.

[5] = system: faba bean; experiment: Faba bean seed germination and flowering; conditions: 10 μM compound
Description: Fifty four lentil genotypes were selected for the experiment based on the existing data on the number of days it takes them to emerge and days to flowering. The seeds of each genotype were scarified before sowing and subjected to 3 treatments. VWR 415 9 cm filter papers were placed inside VWR 100 mm plastic petri dishes. Each petri dish was labeled on both the top and the bottom. Ten seed from each line was place in a labelled petri dish. Each lentil or faba bean genotype was replicated 3 times and subjected to 3 treatments (total number of experimental petri dishes=531). Thus: • 1. ABA exemplary compound solution [10 μM exemplary ABA analog compound 1019 in 1% DMSO, 99% H2O (LL10.1014.1) NaSaH (SL-1-16-1-53)] • 2. No exemplary ABA analogue solution (1% DMSO, 99% H2O) • 3. Distilled water—control
Seven milliliters of either exemplary ABA analogue solution, solution with no exemplary ABA analogue or distill water (control) was added into the corresponding labelled petri dishes containing the 10 scarified lentil seeds. For faba, bean, 10 ml because of their large seed size. The petri dishes were placed in a dark cupboard. […]
Germination was considered for a seed when a tiny radicle at least 5 mm or greater had emerged from the seed. The number of seeds that germinated was counted and recorded at 48 and 96 hours; and at 7 days. […]

[6] = F7 experiment, 207 lines (Table 2)
[7] = generation F7, 819 seeded (Table 1)

In the case of `CC1=C(C#Cc2ccccc2)C(=O)CC(C)(C)[C@@]1(O)/C=C/C(C)=C\C(=O)O` [Compound 1019, (2Z,4E)-5-((S)-1-Hydroxy-2,6,6-trimethyl-4-oxo-3-(phenylethynyl)cyclohex-2-en-1-yl)-3-methylpenta-2,4-dienoic acid], the “radical length (Least Square mean); radical elongation” value [1] is reported as 2.83, the canola seed germination ([2]; 100 μM compound alone, compared to control) is reported as “did not significantly affect” and the canola seed germination ([2]; 100 μM compound plus 10 μM ABA) is reported as “restored to near control levels”. For the same compound, the emergence rate ([3]; F7 experiment) was 100%, the “% Germ.” value [3, 6] was 99% and the “Germ. (number of seeds germinated)” value [3, 6] was 807. For the same compound, the “% Germ.” value ([3]; F7 experiment, 207 lines (Table 2), listed as 1019-ABA) was 98.9%, the seeds emerged ([3]; F7 experiment, four days after seeding (FIG. 12B)) was 81% and the “days earlier flowering than water treatment” value ([3]; F7 experiment, on average) was 4 days. For the same compound, the “DSTE (days from seeding to emergence)” value ([3]; generation CVF6) was 4.03 days, the “DSTF (days from seeding to flowering)” value ([3]; generation CVF6) was 26.14 days and the “DSTG (days from seeding to germination)” value ([3]; generation CVF6) was 1.12 days. For the same compound, the “DSTH (days from seeding to harvesting of first seed)” value ([3]; generation CVF6) was 44.02 days, the “Emerged (number of seeds emerged)” value ([3]; generation CVF6, 226 seeded) was 226 and the “Germ. (number of seeds germinated)” value ([3]; generation CVF6, 226 seeded) was 226. The “DSTE (days from seeding to emergence)” value ([3]; generation F5) was 4.93 days, the “DSTF (days from seeding to flowering)” value ([3]; generation F5) was 28.22 days and the “DSTG (days from seeding to germination)” value ([3]; generation F5) was 2.18 days. The “DSTH (days from seeding to harvesting of first seed)” value ([3]; generation F5) was 45.41 days, the “Emerged (number of seeds emerged)” value ([3]; generation F5, 231 seeded) was 225 and the “Germ. (number of seeds germinated)” value ([3]; generation F5, 231 seeded) was 230. The “Emerged (number of seeds emerged)” value [3, 7] was 791, the “Germ. (number of seeds germinated)” value [3, 7] was 816 and the “lentil seed germination, antagonism of ABA” value ([4]; 10 μM ABA plus 10 μM compound (FIG. 6C)) was “strongest antagonist”. For the same compound, the lentil seed germination ([4]; 10 μM compound and 10 μM compound plus 10 μM ABA (FIG. 5)) was “promoted”, the lentil seed germination ([4]; 100 μM compound plus 10 μM ABA (FIG. 6B)) was “overcame the effect” and the germination rates [5] was “no significant effect”. The days to flowering ([5]; transplanted at 48 hours) was “nor did it significantly affect”.

Source: patent US12063929B2, “3′-alkynyl abscisic acid derivatives as ABA antagonists” (University of Saskatchewan, priority 2018, dated 2024)
